# Reference: patent publication US8980946B2, “Treatment of obesity using non-daily administration of 6-O-(4-dimethylaminoethoxy) cinnamoyl fumagillol” (Zafgen, Inc., priority 2010, dated 2015)
# Values joined by “and” are separate entries in the source; they are usually repeats but may differ in a detail not shown here. Equal entries are not always repeated. Marks after values point to notes of the source that are not given here.
# Key:
# [1] = Twice weekly intravenous administration to obese patients for 26 days: body weight; format: in vivo, human
# Description: (§1) The compound was intravenously administered to each patient of a cohort (except for a placebo cohort) twice weekly for 26 days. Each of patients in the three non-placebo cohorts received either 0.1 mg/m^2 (cohort 1); 0.3 mg/m^2 (cohort 2); or 0.9 mg/m^2 (cohort 3) doses of the compound at the time of administration. The trial was conducted under the appropriate government and medical supervision.
# Table 1 summarizes body weight determination of the 9 patients in the 0.9 mg/m^2 cohort on the day of the first dose and prior to a second dose administered three or four days later.
# (§2) FIG. 1 depicts the body weight change (loss) as a percent before each administration of the twice weekly dose for the 0.9 mg/m^2 cohort. FIG. 2 depicts the Visual Analog Scale reports of hunger decline about 50% following successive biweekly dose administration for the 0.9 mg/m^2 cohort.
# All of the subjects of the trial described in Example 1 received doses ranging from 1.8 to 2.2 mg with each administration (given twice weekly). However, weight change was not strictly associated with dose delivered. Instead, response was strongly associated with dose administered per unit excess body weight, as compared to weight change associated with dose delivered per unit body weight.
# [2] = Injection site tolerability; format: in vivo; conditions: doses up to 6 mg
# adiponectin = test: Adiponectin levels in the serum of patients undergoing the trial; format: in vivo, human; conditions: with treatment
# Description: Levels of adiponectin in the serum of patients undergoing the trial were also measured.
# [3] = human, in vivo
# Description: as §1
# There was a significant correlation between weight loss of patients and maintained exposure of 0.02 ng/mL of the drug above the level of quantitation of the assay 24 hours after dosing, as shown in FIG. 4 (circled data point is exposure of one poor responder below the level of quantitation of assay). The PK profile at day 26 is representative of steady state (see FIG. 5).
# Sprague-Dawley male rats = test: Testis toxicity study, subcutaneous administration daily or every third day for 4 weeks; format: in vivo, rat
# Description: A testis toxicity study was performed using daily subcutaneous administration or every other day (every third day) subcutaneous administration in rats. […] Additionally, equivalent total exposure using a 3 mg/kg dose administered every third day was compared as well.
# 64 Sprague-Dawley male rats within ±20% of mean body weight at initiation of dosing were used for the study. Vehicle control or Compound was administered once daily or every 3rd day for 4 weeks, at a volume of 5 mL/kg, as follows, with groups 1-4 for toxicity and groups 5-8 for toxicokinetic studies.
# Upon completion of the study, complete necropsy examinations are performed, and the seminal vesicle, testes, and other organs are weighed at terminal necropsy. Terminal body weights are determined just prior to necropsy for assessment of organ weight changes.
# [4] = Visual Analog Scale of hunger in obese patients, twice weekly dosing; format: in vivo, human; conditions: successive twice weekly doses, 0.9 mg/m^2 cohort
# Description: FIG. 2 depicts visual analogue scale of hunger decline by approximately 50% with body weight change (percent) with twice weekly dosing off 0.1 mg/m^2, 0.3 mg/m^2, and 0.9 mg/m^2 (approximately 1.8 to 2.1 mg) of 6-O-(4-dimethylaminoethoxy)cinnamoyl fumagillol in human patients. Values are means (n=6 per dose level) of changes in fasted Visual Analog Scale scores for each visit day vs. Day 1 for population; p values derived from 2-way ANOVA with Bonferroni post-test comparisons (*, p<0.05; **, p<0.01 vs. placebo).
# as §1, §2
# [5] = average of 9 patients, 0.9 mg/m^2 cohort, first dose to before second dose
# [6] = individual subject, 0.9 mg/m^2 cohort, first dose to before second dose three or four days later
# [7] = rat, s.c., 4 weeks, 1 mg/kg daily
# [8] = rat, s.c., 4 weeks, 1 mg/kg every 3rd day
# [9] = rat, s.c., 4 weeks, 3 mg/kg every 3rd day
smiles,measurement,setting,value
CO[C@@H]1[C@H](OC(=O)/C=C/c2ccc(OCCN(C)C)cc2)CC[C@]2(CO2)[C@H]1[C@@]1(C)O[C@@H]1CC=C(C)C.O=C(O)C(=O)O [6-O-(4-dimethylaminoethoxy)cinnamoyl fumagillol oxalate],efficacy (weight loss),[1]; 0.1 and 0.3 mg/m^2 twice weekly,Lack of efficacy
same,dose with which maximum efficacy is obtained,[1]; administered biweekly,~0.02 mg/kg
same,doses at which weight loss efficacy is obtained,[1]; administered twice weekly,≥ 0.02 mg/kg
same,dose at which weight loss plateaus,[1]; administered twice weekly (~1.8 mg dose),0.9 mg/m^2
same,weight loss at follow up check at day 36,[1]; after twice weekly regimen over 26 days,substantially sustained
same,"Weight Change (%), Average",[1]; [5],−0.7%
same,"Weight Change (kg), Average",[1]; [5],-0.7 kg
same,"Ending weight (kg), Average","[1]; average of 9 patients, 0.9 mg/m^2 cohort, prior to second dose",103.9 kg
same,Weight Change,[1]; [6],0 kg and −0.5 kg and −0.7 kg and 0.2 kg and −0.6 kg and −1.1 kg (2×) and −0.9 kg and −1.9 kg
same,Weight Change (%),[1]; [6],0.0% and −0.5% and −0.6% (2×) and 0.2% and −1.1% and −0.9% and −1.9% and −1.0%
same,Ending weight,"[1]; individual subject, 0.9 mg/m^2 cohort, prior to second dose three or four days after first dose",107.9 kg and 105 kg and 118 kg and 96.2 kg and 95.7 kg and 100.4 kg and 103.7 kg and 100.5 kg and 107.5 kg
same,dose per kg of excess body weight to be exceeded to see effects,"[1]; obese patients, twice weekly",> 40 μg of drug per kg of excess body weight
same,number of patients showing greater than 3-4 percent body weight loss,"[1]; of the 9 subjects at 0.9 mg/m^2, twice weekly, over 26 days of exposure",7
same,duration of weight reduction after single administration,[1]; single administration of 0.9 mg/m2 dose,4 days
same,injection site tolerability,[2],acceptable
same,increase of adiponectin concentrations,adiponectin,over 60%
same,drug exposure at 24 hours post dose associated with weight loss,[3],above 0.02 ng/mL
same,AUC (0-24 hr) measured range,"[3]; iv, 0.9 mg/m2",8.57 to 13.6 ng·h/mL
same,T1/2 (H) λz (terminal),"[3]; iv, 0.9 mg/m2",5.41±2.82 H
same,average AUC (0-24 hr),"[3]; iv, 0.9 mg/m2",10.5 ng·h/mL
same,average AUC (0-∞),"[3]; iv, 0.9 mg/m2",11 ng·h/mL
same,average Cmax,"[3]; iv, 0.9 mg/m2",2.1 ng/mL
same,terminal half life,"[3]; iv, 0.9 mg/m2",5.4 h
same,Clinical Chemistry findings,"Sprague-Dawley male rats; rat, 1 mg/kg Q3D",No findings
same,Hematology findings,"Sprague-Dawley male rats; rat, 1 mg/kg Q3D",No findings
same,Macroscopic findings,"Sprague-Dawley male rats; rat, 1 mg/kg Q3D",No findings
same,Microscopic findings,"Sprague-Dawley male rats; rat, 1 mg/kg Q3D",No findings
same,Organ weight findings,"Sprague-Dawley male rats; rat, 1 mg/kg Q3D",No findings
same,Clinical Chemistry: Higher albumin/globulin,"Sprague-Dawley male rats; rat, 1 mg/kg/day",Higher albumin/globulin (1.12X)
same,Clinical Chemistry: Higher potassium,"Sprague-Dawley male rats; rat, 1 mg/kg/day",Higher potassium (1.2X)
same,Clinical Chemistry: Reduced Inorg phosphate,"Sprague-Dawley male rats; rat, 1 mg/kg/day",Reduced Inorg phosphate (0.96 X)
same,Clinical Chemistry: Reduced alk phos,"Sprague-Dawley male rats; rat, 1 mg/kg/day",Reduced alk phos (0.72X)
same,Hematology findings,"Sprague-Dawley male rats; rat, 1 mg/kg/day",Reduced blood cell counts
same,Hematology: Basophil,"Sprague-Dawley male rats; rat, 1 mg/kg/day",0.55 X
same,Hematology: Eosinophil,"Sprague-Dawley male rats; rat, 1 mg/kg/day",0.75 X
same,Hematology: Large unstained cell,"Sprague-Dawley male rats; rat, 1 mg/kg/day",(0.67X)
same,Hematology: Lymphocyte,"Sprague-Dawley male rats; rat, 1 mg/kg/day",0.65 X
same,Hematology: Monocyte,"Sprague-Dawley male rats; rat, 1 mg/kg/day",0.79 X
same,Hematology: Neutrophil,"Sprague-Dawley male rats; rat, 1 mg/kg/day",0.83 X
same,Hematology: WBC,"Sprague-Dawley male rats; rat, 1 mg/kg/day",0.68 X
same,Macroscopic findings,"Sprague-Dawley male rats; rat, 1 mg/kg/day",Smaller testes and epididymides
same,"Microscopic findings, lymph node","Sprague-Dawley male rats; rat, 1 mg/kg/day",Lymph node atrophy
same,Microscopic: Germ cell depletion/degeneration (incidence),"Sprague-Dawley male rats; rat, 1 mg/kg/day",Germ cell depletion/degeneration 9/10
same,Organ weight: Adrenal,"Sprague-Dawley male rats; rat, 1 mg/kg/day",(1.24X)
same,Organ weight: Brain,"Sprague-Dawley male rats; rat, 1 mg/kg/day",1.15 X
same,Organ weight: Epididymides,"Sprague-Dawley male rats; rat, 1 mg/kg/day",0.88 X
same,Organ weight: Liver,"Sprague-Dawley male rats; rat, 1 mg/kg/day",0.85 X
same,Organ weight: Prostate,"Sprague-Dawley male rats; rat, 1 mg/kg/day",0.83 X
same,Organ weight: Salivary gland,"Sprague-Dawley male rats; rat, 1 mg/kg/day",0.87 X
same,Organ weight: Seminal vesicle,"Sprague-Dawley male rats; rat, 1 mg/kg/day",0.79 X
same,Organ weight: Spleen,"Sprague-Dawley male rats; rat, 1 mg/kg/day",0.71 X
same,Organ weight: Testes,"Sprague-Dawley male rats; rat, 1 mg/kg/day",0.83 X
same,Organ weight: Thymus,"Sprague-Dawley male rats; rat, 1 mg/kg/day",0.86 X
same,Organ weight: Thyroid,"Sprague-Dawley male rats; rat, 1 mg/kg/day",0.82 X
same,overall findings,"Sprague-Dawley male rats; rat, 1 mg/kg/day",adverse findings (e.g. blood dyscrasias and/or irreversible testis lesions)
same,Clinical Chemistry: Higher albumin/globulin,"Sprague-Dawley male rats; rat, 3 mg/kg Q3D",(1.09X)
same,Hematology findings,"Sprague-Dawley male rats; rat, 3 mg/kg Q3D",No findings
same,Macroscopic findings,"Sprague-Dawley male rats; rat, 3 mg/kg Q3D",No findings
same,Microscopic findings,"Sprague-Dawley male rats; rat, 3 mg/kg Q3D",No findings
same,Organ weight findings,"Sprague-Dawley male rats; rat, 3 mg/kg Q3D",No findings
same,animal weight,"Sprague-Dawley male rats; rat, 3 mg/kg every three days",reduces animal weight significantly
same,overall findings,"Sprague-Dawley male rats; rat, 3 mg/kg every three days",does not show any significant adverse findings
same,Epididymides absolute weight,Sprague-Dawley male rats; [7],1.130 g
same,Prostate absolute weight,Sprague-Dawley male rats; [7],0.546 g
same,Seminal Vesicles absolute weight (g),Sprague-Dawley male rats; [7],1.201** g
same,Testes absolute weight (g),Sprague-Dawley male rats; [7],2.569* g
same,Thymus absolute weight,Sprague-Dawley male rats; [7],0.343 g
same,Epididymides absolute weight,Sprague-Dawley male rats; [8],1.249 g
same,Prostate absolute weight,Sprague-Dawley male rats; [8],0.710 g
same,Seminal Vesicles absolute weight,Sprague-Dawley male rats; [8],1.523 g
same,Testes absolute weight,Sprague-Dawley male rats; [8],3.097 g
same,Thymus absolute weight,Sprague-Dawley male rats; [8],0.421 g
same,Epididymides absolute weight,Sprague-Dawley male rats; [9],1.267 g
same,Prostate absolute weight,Sprague-Dawley male rats; [9],0.663 g
same,Testes absolute weight,Sprague-Dawley male rats; [9],3.273 g
same,Thymus absolute weight,Sprague-Dawley male rats; [9],0.423 g
same,tissue weight effects (testes and seminal vesicle weights),Sprague-Dawley male rats; rats administered with less frequent dosing (every third day),no tissue weight effects
same,Visual Analog Scale hunger decline,[4],about 50%
same,Visual Analog Scale hunger decline,[4]; listed as 6-O-(4-dimethylaminoethoxy)cinnamoyl fumagillol,approximately 50%
